Like-named read-outs stand apart in the source and are kept apart here.
What was measured:
H1299 p53 Y220C = test: Cell Proliferation Assay (CellTiter-Glo, CTG), H1299 p53 Y220C (NClH1299-inducible p53 Y220C); assay type: cell-based; settings: Homo sapiens, NCI-H1299, 120 h, 5 days, CellTiter-Glo
How it was run: (§1)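 NClH1299 lines stably transduced with Tet-inducible p53 Y220C or R273H, plus NUGC3, were treated with compound for 5 days at 250-500 cells/well. IC50 derived from CellTiter-Glo luminescent signal after 10 min room-temperature incubation.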

NUGC3 p53 Y220C = test: Cell Proliferation Assay (CellTiter-Glo, CTG), NUGC3 p53 Y220C; assay type: cell-based; settings: Homo sapiens, NUGC-3, 120 h, 5 days, CellTiter-Glo
How it was run: as §1

p53 Y220C = p53 Y220C (Homo sapiens, UniProt P04637, Y220C); test: Luciferase Reporter Assay (Luc), p53 response element, NClH1299 cells with inducible p53 Y220C; assay type: cell-based; settings: luciferase reporter, NClH1299 inducible p53 Y220C, 6 hour; for AC50: read-out: Luc P53 Y220C AC50
How it was run: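 24 h dox pre-induction (0.5 ug/mL), then 6 h compound; One-Glo luminescent read.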

[1] = molecular target: T1, p53 Y220C mutant protein (amino acid residues 94-293) (Homo sapiens, UniProt P04637, Y220C); test: Thermal Shift Assay (TSA), dTM; assay type: binding; settings: for ΔTm at 10 µM: 10 uM compound; for ΔTm at 100 µM: 100 uM compound, read-out: TSA P53 Y220C dTM (100 uM)
T1 construct: p53 Y220C mutant protein (amino acid residues 94-293)
How it was run: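 Differential scanning fluorimetry with Sypro Orange on 5 μM p53 Y220C residues 94-293, compound tested at 10 μM or 100 μM after 3 hours at 20 °C; buffer 20 mM HEPES, pH7.4, 100 mM NaCl, 1% DMSO.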

H1299 p53 R273H = test: Cell Proliferation Assay (CellTiter-Glo, CTG), H1299 p53 R273H (NClH1299-inducible p53 R273H); assay type: cell-based; settings: Homo sapiens, NCI-H1299, 120 h, 5 days, CellTiter-Glo
How it was run: as §1

[2] = molecular target: T1, p53 Y220C mutant protein (amino acid residues 94-293); test: Surface Plasmon Resonance (SPR) assay, Kd_kinetic; assay type: binding; settings: read-out: SPR P53 Y220C KD kinetic
How it was run: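 Temperature held at 16 or 20 °C during Biacore 8K runs. Buffer: 50 mM Tris, pH 7.5, 100 mM NaCl, 1 mM DTT, 0.01% Brij35, 0.05% Tween-20, 1% DMSO.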

[3] = NClH1299-inducible p53 Y220C cells
[4] = p53 Y220C, read-out: TSA P53 Y220C dTM
[5] = NClH1299-inducible p53 R273H cells
[6] = 10 uM tool compound as positive control
[7] = thermal shift, read-out: TSA P53 Y220C dTM (10 uM)

## CNC(=O)c1ccc(NCC#Cc2cc3c(N[C@@H]4CCN(C)C[C@@H]4F)nccn3c2SC(F)(F)F)cc1 [Example 297]
H1299 p53 Y220C; [3]
  IC50: < 750 nM
NUGC3 p53 Y220C; NUGC3 cells
  IC50: < 750 nM
p53 Y220C; AC50
  AC50: < 750 nM
p53 Y220C; Emax
  Emax: > 90%
[1]; [4]
  ΔTm at 10 µM: ≥ 10 °C
H1299 p53 R273H; [5]
  IC50: ≥ 10000 nM
[2]
  Kd: < 10 nM

## COc1cc(P(C)(C)=O)ccc1NCC#Cc1cc2c(N[C@@H]3CCN(C)C[C@@H]3F)cccn2c1SC(F)F [Example 349]
H1299 p53 Y220C; [3]
  IC50: < 750 nM
NUGC3 p53 Y220C; NUGC3 cells
  IC50: < 750 nM
p53 Y220C; AC50
  AC50: < 750 nM
p53 Y220C; Emax
  Emax: 80 to 90%
[1]; [4]
  ΔTm at 10 µM: ≥ 10 °C
H1299 p53 R273H; [5]
  IC50: ≥ 10000 nM
[2]; SPR, p53 Y220C
  Kd: < 10 nM

## CNC(=O)c1ccc(OC)c(NCC#Cc2nc3c(N[C@@H]4CCN(C)C[C@@H]4F)cccn3c2CC(F)(F)F)n1 [Example 213]
H1299 p53 Y220C; H1299 p53 Y220C
  IC50: < 750 nM
NUGC3 p53 Y220C; NUGC3 p53 Y220C
  IC50: < 750 nM
p53 Y220C; [6]
  Emax: 70 to 80%
p53 Y220C
  AC50: < 750 nM
[1]; [7]
  ΔTm at 10 µM: ≥ 10 °C
[1]; thermal shift
  ΔTm at 100 µM: ≥ 10 °C
H1299 p53 R273H; H1299 p53 R273H
  IC50: ≥ 10000 nM
[2]
  Kd: < 10 nM

## COc1cc(S(C)(=O)=O)ccc1NCC#Cc1nc2c(NC3CCN(C)CC3)cc(N)cn2c1CC(F)(F)F [Example 32, 2-{3-[(4-methanesulfonyl-2-methoxyphenyl)amino]prop-1-yn-1-yl}-N8-(1-methylpiperidin-4-yl)-3-(2,2,2-trifluoroethyl) imidazo[1,2-a]pyridine-6,8-diamine]
H1299 p53 Y220C; H1299 p53 Y220C
  IC50: > 3000 nM
NUGC3 p53 Y220C; NUGC3 p53 Y220C
  IC50: > 3000 nM
p53 Y220C; [6]
  Emax: < 70%
p53 Y220C
  AC50: > 3000 nM
[1]; [7]
  ΔTm at 10 µM: 1 to 5 °C
[1]; thermal shift
  ΔTm at 100 µM: 1 to 5 °C
H1299 p53 R273H; H1299 p53 R273H
  IC50: ≥ 10000 nM
[2]; SPR, kinetic KD, p53 Y220C
  Kd: < 10 nM

## CNC(=O)c1ccc(OC)c(NCC#Cc2nc3c(N[C@H]4C[C@@H]5CC[C@H]([C@H]4F)N5C)cccn3c2SC(F)(F)F)c1 [Example 200]
H1299 p53 Y220C; H1299 p53 Y220C
  IC50: < 750 nM
NUGC3 p53 Y220C; NUGC3 p53 Y220C
  IC50: < 750 nM
p53 Y220C; [6]
  Emax: 70 to 80%
p53 Y220C
  AC50: < 750 nM
[1]; [7]
  ΔTm at 10 µM: ≥ 10 °C
[1]; thermal shift
  ΔTm at 100 µM: ≥ 10 °C
H1299 p53 R273H; H1299 p53 R273H
  IC50: ≥ 10000 nM
[2]; SPR, kinetic KD, p53 Y220C
  Kd: < 10 nM

## COc1ccc(C(=O)N2CCC2)cc1NCC#Cc1nc2c(N[C@@H]3CCN(C)C[C@@H]3F)cccn2c1SC(F)(F)F [Example 144]
H1299 p53 Y220C; H1299 p53 Y220C
  IC50: 1500 to 3000 nM
NUGC3 p53 Y220C; NUGC3 p53 Y220C
  IC50: 750 to 1500 nM
p53 Y220C; [6]
  Emax: 80 to 90%
p53 Y220C
  AC50: 750 to 1500 nM
[1]; [7]
  ΔTm at 10 µM: 5 to 10 °C
[1]; thermal shift
  ΔTm at 100 µM: ≥ 10 °C
H1299 p53 R273H; H1299 p53 R273H
  IC50: ≥ 10000 nM
[2]
  Kd: < 10 nM

## CNC(=O)c1ccc(NCC#Cc2nc3c(NC4CCN(C)CC4)cc(NC(=O)OC(C)(C)C)cn3c2CC(F)(F)F)c(OC)c1 [Example 39, tert-butyl N-[2-(3-{[2-methoxy-4-(methylcarbamoyl)phenyl]amino}prop-1-yn-1-yl)-8-[(1-methylpiperidin-4-yl)amino]-3-(2,2,2-trifluoroethyl)imidazo[1,2-a]pyridin-6-yl]carbamate]
H1299 p53 Y220C; H1299 p53 Y220C
  IC50: > 3000 nM
NUGC3 p53 Y220C; NUGC3 p53 Y220C
  IC50: 1500 to 3000 nM
p53 Y220C; [6]
  Emax: < 70%
p53 Y220C
  AC50: > 3000 nM
[1]; thermal shift
  ΔTm at 100 µM: 1 to 5 °C
H1299 p53 R273H; H1299 p53 R273H
  IC50: 5000 to 8000 nM
[2]; SPR, kinetic KD, p53 Y220C
  Kd: > 1000 nM

## COc1ccc(C(N)=O)cc1NCC#Cc1nc2c(N[C@@H]3CCN(C)C[C@@H]3F)cccn2c1SC(F)(F)F [Example 138]
H1299 p53 Y220C; H1299 p53 Y220C
  IC50: < 750 nM
NUGC3 p53 Y220C; NUGC3 p53 Y220C
  IC50: < 750 nM
p53 Y220C; [6]
  Emax: 80 to 90%
p53 Y220C
  AC50: < 750 nM
[1]; [7]
  ΔTm at 10 µM: ≥ 10 °C
[1]; thermal shift
  ΔTm at 100 µM: ≥ 10 °C
H1299 p53 R273H; H1299 p53 R273H
  IC50: 8000 to 10000 nM
[2]; SPR, kinetic KD, p53 Y220C
  Kd: < 10 nM

## CNC(=O)c1ccc(OC)c(NCC#Cc2nc3c(N[C@@H]4CN(C)C[C@@H]4F)cccn3c2SC(F)(F)F)c1 [Example 153]
H1299 p53 Y220C; H1299 p53 Y220C
  IC50: < 750 nM
NUGC3 p53 Y220C; NUGC3 p53 Y220C
  IC50: < 750 nM
p53 Y220C; [6]
  Emax: 80 to 90%
p53 Y220C
  AC50: < 750 nM
[1]; [7]
  ΔTm at 10 µM: ≥ 10 °C
[1]; thermal shift
  ΔTm at 100 µM: ≥ 10 °C
H1299 p53 R273H; H1299 p53 R273H
  IC50: ≥ 10000 nM
[2]; SPR, kinetic KD, p53 Y220C
  Kd: < 10 nM

## CNC(=O)c1ccc(NCC#Cc2nc3c(N[C@@H]4CCOC[C@@H]4F)cccn3c2SC(F)(F)F)c(OC)c1 [Example 101, 4-{[3-(8-{[(3R,4R)-3-fluorooxan-4-yl]amino}-3-[(trifluoromethyl)sulfanyl]imidazo[1,2-a]pyridin-2-yl)prop-2-yn-1-yl]amino}-3-methoxy-N-methylbenzamide]
H1299 p53 Y220C; H1299 p53 Y220C
  IC50: < 750 nM
NUGC3 p53 Y220C; NUGC3 p53 Y220C
  IC50: < 750 nM
p53 Y220C; [6]
  Emax: 80 to 90%
p53 Y220C
  AC50: < 750 nM
[1]; [7]
  ΔTm at 10 µM: 5 to 10 °C
[1]; thermal shift
  ΔTm at 100 µM: ≥ 10 °C
H1299 p53 R273H; H1299 p53 R273H
  IC50: ≥ 10000 nM
[2]; SPR, kinetic KD, p53 Y220C
  Kd: < 10 nM

— patent US20260374766A1, “METHODS FOR TREATING CANCER” (Antares Therapeutics, Inc., priority 2022, published 2026)
